How the values were obtained:
Format in all cases: in vivo
Wibw = assay: plant injury after spraying emerged plants (Table D); set-up: scale not given here
Method in brief: (§1)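 Seeds or vegetative propagules of annual and perennial species were pressed into steam-sterilized silt loam, covered with 1.27 cm of topsoil/peat-moss/vermiculite mix, and grown on greenhouse benches with subirrigation. Injury was scored on emerged plants after spraying.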

Vele = assay: as above; set-up: scale not given here
Method in brief: as §1

Hese = assay: as above; set-up: scale not given here
Method in brief: as §1

Jiwe = assay: as above; set-up: scale not given here
Source text: (§2) Topsoil (silt loam) is sieved through a screen having 1.27 cm openings. In some of the tests the soil was mixed with fertilizer (1225 g/cu. m of 12/5/9 containing isobutylidene diurea), while in other tests the fertilizer was omitted. This mixture is steam sterilized and then placed in aluminum pans 6.985 cm deep having ten holes in the bottom each 0.635 cm in diameter. The soil mixture is compacted to a depth of 1.27 cm. from the top of the pan. A predetermined number of seeds of each of several dicotyledonous and monocotyledonous annual plant species and/or vegetative propagules for the perennial plant species are placed on the soil and pressed into the soil surface. The seeds and/or vegetative propagules are covered with 1.27 cm of a mixture of 50% topsoil and 50% of a mixture of Canadian sphagnum peat moss, vermiculite and a wetting agent. The pans are then placed on a capillary mat on a greenhouse bench and subirrigated as needed. After the plants reach the desired stage (9 to 14 days, 1 to 3 true leaf stage), each pan (except the control pans) is removed to a spraying chamber and sprayed by means of an atomizer, operating at a spray pressure of 170.3 kPa ([…]) at the application rates noted in Table D. In the spray solution is an amount of an emulsifying agent mixture (35% butylamine salt of dodecylbenzenesulfonic acid and 65% tall oil condensed with ethylene oxide in the ratio of 11 mols of ethylene oxide/mol of tall oil) to give a spray solution or suspension. The spray solution or suspension contains a sufficient amount of the candidate chemical in order to give application rates of the active ingredient corresponding to those shown in Table D below while applying a total amount of solution or suspension equivalent to 1870 L/Ha (200 gallons/acre). The pans are returned to the greenhouse and watered as before and the injury to the plants as compared to the control pans is observed at approximately 10-14 days (usually 11 days).
(§3) In the following Table D the legends used to identify the plant species are the same as those used in the preceding Table B.

Cotz = assay: as above; set-up: scale not given here
Source text: as §2, §3

Rape = assay: as above; set-up: scale not given here
Source text: as §2, §3

Dobr = assay: as above
Source text: as §2, §3

Wild Buckwheat = assay: Pre-emergent herbicidal activity (Table A); details: Fallopia convolvulus, pre-emergence, Wibw, 11.2 kg/ha, 10-14 days, read-out: herbicidal rating (% inhibition)
Method in brief: (§4)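 Compound incorporated into the cover-soil layer over sown seed at a rate equivalent to 11.2 kg/ha (acetone or water carrier). Greenhouse growth with watering as needed; ratings reflect percent inhibition per species, recorded around day 11 (range 10–14).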

Indian Mustard = assay: Pre-emergent herbicidal activity (Table A); details: Brassica juncea, pre-emergence, Inmu, 11.2 kg/ha, 10-14 days, read-out: herbicidal rating (% inhibition)
Method in brief: as §4

Annual Bluegrass = assay: Pre-emergent herbicidal activity (Table A); details: pre-emergence, Anbg, 11.2 kg/ha, 10-14 days, read-out: herbicidal rating (% inhibition)
Method in brief: as §4

Seedling Johnsongrass = assay: Pre-emergent herbicidal activity (Table A); details: Sorghum halepense, pre-emergence, Sejg, 11.2 kg/ha, 10-14 days, read-out: herbicidal rating (% inhibition)
Method in brief: as §4

SMILES | plant injury rating, Wibw (Wibw; 0.0701 kg/ha) | plant injury rating, Wibw (Wibw; 0.2803 kg/ha) | plant injury rating, Wibw (Wibw; 1.1210 kg/ha) | plant injury rating, Wibw (Wibw; 5.6050 kg/ha) | plant injury rating, Vele (Vele; 0.0701 kg/ha) | plant injury rating, Vele (Vele; 0.2803 kg/ha) | plant injury rating, Vele (Vele; 1.1210 kg/ha) | plant injury rating, Vele (Vele; 5.6050 kg/ha) | plant injury rating, Hese (Hese; 0.0701 kg/ha) | plant injury rating, Hese (Hese; 0.2803 kg/ha) | plant injury rating, Hese (Hese; 1.1210 kg/ha) | plant injury rating, Hese (Hese; 5.6050 kg/ha) | plant injury rating, Jiwe (Jiwe; 0.0701 kg/ha) | plant injury rating, Jiwe (Jiwe; 0.2803 kg/ha) | plant injury rating, Jiwe (Jiwe; 1.1210 kg/ha) | plant injury rating, Jiwe (Jiwe; 5.6050 kg/ha) | plant injury rating, Cotz (Cotz; 0.0701 kg/ha) | plant injury rating, Cotz (Cotz; 0.2803 kg/ha) | plant injury rating, Cotz (Cotz; 1.1210 kg/ha) | plant injury rating, Cotz (Cotz; 5.6050 kg/ha) | further results
COC(=O)c1c(OC)nc(C(F)(F)F)c(C(=O)NCCCBr)c1CC(C)C [Compound 97, 3-pyridinecarboxylic acid, 5-[[(3-bromopropyl)amino)carbonyl]-2-methoxy-4-(2-methylpropyl)-6-(trifluoromethyl)-, methyl ester] | 0 | 0 | 0 | 0 | 0 | 0 | 0 | 0 | 0 | 0 | 0 | 0 | 0 | 0 | 0 | 1 | 0 | 0 | 0 | 0 | plant injury rating, Rape (Rape; 0.0701 kg/ha): 0; plant injury rating, Rape (Rape; 0.2803 kg/ha): 0; plant injury rating, Rape (Rape; 1.1210 kg/ha): 0; plant injury rating, Rape (Rape; 5.6050 kg/ha): 0; plant injury rating, Dobr (Dobr; 0.0701 kg/ha): 0; plant injury rating, Dobr (Dobr; 0.2803 kg/ha): 0; plant injury rating, Dobr (Dobr; 1.1210 kg/ha): 0; plant injury rating, Dobr (Dobr; 5.6050 kg/ha): 0; inhibition at 11200 g/ha (Wild Buckwheat): 50 to 74%; inhibition at 11200 g/ha (Indian Mustard): 75 to 100%; inhibition at 11200 g/ha (Annual Bluegrass): 75 to 100%; inhibition at 11200 g/ha (Seedling Johnsongrass): 75 to 100%
COC(=O)c1c(OC)nc(C(F)(F)F)c(C2=NCCCS2)c1CC(C)C [Compound 98, 3-pyridinecarboxylic acid, 5-(5,6-dihydro-4H-1,3-thiazin-2-yl)-2-methoxy-4-(2-methylpropyl)-6-(trifluoromethyl)-, methyl ester] | 0 | 0 | 1 | 3 | 1 | 2 | 2 | 3 | 1 | 2 | 2 | 3 | 2 | 2 | 3 | 3 | 0 | 0 | 1 | 2 | plant injury rating, Rape (Rape; 0.0701 kg/ha): 0; plant injury rating, Rape (Rape; 0.2803 kg/ha): 0; plant injury rating, Rape (Rape; 1.1210 kg/ha): 1; plant injury rating, Rape (Rape; 5.6050 kg/ha): 3; plant injury rating, Dobr (Dobr; 0.0701 kg/ha): 0; plant injury rating, Dobr (Dobr; 0.2803 kg/ha): 0; plant injury rating, Dobr (Dobr; 1.1210 kg/ha): 0; plant injury rating, Dobr (Dobr; 5.6050 kg/ha): 0; inhibition at 11200 g/ha (Wild Buckwheat): 75 to 100%; inhibition at 11200 g/ha (Indian Mustard): 75 to 100%; inhibition at 11200 g/ha (Annual Bluegrass): 75 to 100%; inhibition at 11200 g/ha (Seedling Johnsongrass): 75 to 100%
